From patent publication US10544154B2, “Opioid receptor antagonist prodrugs” (Nirsum Laboratories, Inc., priority 2017, dated 2020)

Columns and labels:
[1] = Plasma stability, dog plasma (HPLC-MS); type: in vitro ADME; settings: 2 μM, 37° C.
Method: (§1) Plasma stability determination of the test compounds in rat, dog, cynomolgus monkey and human plasma is performed using HPLC-MS. For rat, incubations are carried out in 96-well polypropylene plates in 5 aliquots of 70 μL each (one for each time point). […] Five time points are analyzed (0, 15, 120, 480 and 1440 min). For dog, monkey and human, test compounds (2 μM, final solvent concentration 1%) were also incubated at 37° C. and analyzed at five time points (0, 10, 30, 60 and 120 min). All incubations are performed in duplicates. The samples are analyzed by HPLC-MS. The percentage of parent compound remaining after incubation in plasma is determined.

[2] = Plasma stability, human plasma (HPLC-MS); type: in vitro ADME; settings: 2 μM, 37° C.
Method: as §1, with “For dog, monkey and human, test compounds (2 μM, final solvent concentration 1%) were also incubated at 37° C. and analyzed at five time points (0, 10, 30, 60 and 120 min).” left out

[3] = Liver S9 fraction stability, human; type: in vitro ADME; settings: 2 μM, 1.0 mg/ml S9 protein, 37° C.
Method: (§2) Liver S9 fraction stability determination of the test compounds in dog, cynomolgus monkey and human is performed using HPLC-MS. Test compound (2 μM, 0.1% DMSO, 1% Methanol final concentration) was assessed for stability in a 50 μl phosphate buffer containing 1.0 mg/ml S9 protein from each of the three species and 5 mM D-saccharic acid-1, 4-lactone. Samples were incubated at 37° C. for 60 minutes and the % compound remaining was assessed.

[4] = Liver S9 fraction stability, cynomolgus monkey; type: in vitro ADME; settings: 2 μM, 1.0 mg/ml S9 protein, 37° C.
Method: as §2

[5] = Plasma stability, rat plasma (HPLC-MS); type: in vitro ADME; settings: 10 μM, 37° C.
Outline: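 Read-out: percent parent compound remaining, by HPLC-MS, duplicate incubations. Dog/monkey/human: 2 μM test compound, 1% solvent final, 37 °C, time points 0, 10, 30, 60, 120 min. Rat: time points 0, 15, 120, 480, 1440 min.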

[6] = Clinical observations for dogs in pharmacokinetic studies; type: in vivo, Beagle dogs; settings: 48 mg/kg DeepIM
Outline: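 Body weight checked weekly and used on dosing morning to set volume. Formulation (400 mg base equivalents/ml, sesame oil with 1% benzyl alcohol, unless otherwise specified) given by deep intramuscular injection into thigh muscle under propofol (6 mg/kg IV) sedation, vehicle into the opposite side; sites may rotate on repeat dosing.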

[7] = Liver S9 fraction stability, dog; type: in vitro ADME; settings: 2 μM, 1.0 mg/ml S9 protein, 37° C.
Method: as §2

[8] = Plasma stability, cynomolgus monkey plasma (HPLC-MS); type: in vitro ADME; settings: 2 μM, 37° C., 0 min
Method: as §1, with “For dog, monkey and human, test compounds (2 μM, final solvent concentration 1%) were also incubated at 37° C. and analyzed at five time points (0, 10, 30, 60 and 120 min).” left out

## C=C1CC[C@@]2(O)C3Cc4ccc(OCOC(=O)OCCCCCCCCCCCC)c5c4[C@@]2(CCN3CC2CC2)[C@H]1O5 [Compound 24, (((4aS,7aS,12bS)-3-(cyclopropylmethyl)-4a-hydroxy-7-methylene-2,3,4,4a,5,6,7,7a-octahydro-1H-4,12-methanobenzofuro[3,2-e]isoquinolin-9-yl)oxy)methyl dodecyl carbonate]
[1]
  % remaining at time point in minutes, 0 min: 100%
[2]; 0 min
  % remaining at time point in minutes, 0 min: 100%
[2]; 15 min
  % remaining at time point in minutes, 15 min: 94%
[3]
  Liver S9 Fraction Stability, % remaining at 60 minutes, Human: 3.5%
[4]
  Liver S9 Fraction Stability, % remaining at 60 minutes, Monkey: 3%
[5]; 0 min
  % remaining at time point in minutes, 0 min: 100%
[5]; 15 min
  % remaining at time point in minutes, 15 min: 32%
[5]; 480 min
  % remaining at time point in minutes, 480 min: 8.2%
[5]; 1440 min
  % remaining at time point in minutes, 1440 min: 3%
[6]; dog D1501, 24 hr
  BT: 38.8
[6]; dog D1501, 96 hr
  BT: limb/BT: 39.2
[6]; dog D1501, 120 hr
  BT: 39.2
[6]; dog D1501, 144 hr
  BT: 39.6
[6]; dog D1501, 192 hr
  BT: calf/BT: 39.0
[6]; dog D1501, 216 hr
  BT: 8 * 5 cm/BT: 39.0
[6]; dog D1501, 240 hr
  BT: 8 * 5 cm/BT: 39.0
[6]; dog D1501, 264 hr
  BT: 6 * 5 cm/BT: 38.9
[6]; dog D1501, 288 hr
  BT: 6 * 5 cm/BT: 38.9
[6]; dog D1501, […]
  BT: 39.6
[6]; dog D1502, 96 hr
  BT: groin/red/BT: 38.3
[6]; dog D1502, 120 hr
  BT: groin/red/BT: 38.7
[6]; dog D1502, 144 hr
  BT: groin/red/BT: 38.3
[6]; dog D1502, 192 hr
  BT: groin/red/BT: 38.5
[6]; dog D1502, 216 hr
  BT: groin/red/BT: 38.4
[6]; dog D1502, 240 hr
  BT: leg/red/BT: 38.9
[6]; dog D1502, 264 hr
  BT: leg/red/BT: 38.3
[6]; dog D1502, 288 hr
  BT: leg/red/BT: 38.5
[6]; dog D1502, […]
  BT: groin/red/BT: 38.4
[6]; third dog (head prints D1502), 144 hr
  BT: 8 * 8 cm/BT: 39.5
[6]; third dog (head prints D1502), 192 hr
  BT: 8 * 8 cm/BT: 38.0
[6]; third dog (head prints D1502), 216 hr
  BT: 8 * 8 cm/BT: 38.8
[6]; third dog (head prints D1502), 240 hr
  BT: 8 * 8 cm/BT: 39.2
[6]; third dog (head prints D1502), 264 hr
  BT: 8 * 8 cm/BT: 38.9
[6]; third dog (head prints D1502), 288 hr
  BT: 8 * 8 cm/BT: 38.8
[6]; third dog (head prints D1502), […]
  BT: 8 * 8 cm/BT: 39.3
[7]
  Liver S9 Fraction Stability, % remaining at 60 minutes, Dog: 3.6%
[8]
  % remaining at time point in minutes, 0 min: 100%
